According to patent publication US12435060B2, “Acylamino bridged heterocyclic compound, and composition and application thereof” (BEIJING SCITECH-MQ PHARMACEUTICALS LIMITED, priority 2019, dated 2025):

Test system: HT29 cells
Experiment: Inhibition of cell necrosis (CCK8 method), induced programmed necrosis of HT29 cells
Assay type: cell-based
Conditions: Homo sapiens, HT-29; rescue from necrosis induced by TNF-α 20 ng/mL, AT-406 1 μM, Z-VAD-FMK 20 μM; 16-20 hours; CCK-8, OD 450 nm
Procedure, shortened: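 HT29 cells in McCOY's 5A with 10% FBS were pre-treated for 30 min with compound (9 fourfold steps, 25000 to 0.38 nM final, 0.25% DMSO). Necrosis was then induced with TNF-α 20 ng/mL, AT-406 1 μM and Z-VAD-FMK 20 μM for 16-20 h. Viability was read by CCK-8 OD450, normalized between uninduced and induced wells, and IC50 was curve-fitted.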

Structure (SMILES)	IC50
CC(C)(O)CCCOc1ccc(C(F)(F)F)c(-c2ccnc(NC(=O)c3nnc(Cc4ccccc4F)[nH]3)c2)c1 [Example 255, 5-(2-fluorobenzyl)-N-(4-(5-((4-hydroxy-4-methylpentyl)oxy)-2-(trifluoromethyl)phenyl)pyridin-2-yl)-4H-1,2,4-triazole-3-carboxamide]	≤ 100 nM
CC(C)(O)CCCOc1ccc(F)c(-c2cc(NC(=O)c3nnc(CC4CCCCC4)[nH]3)ncc2Cl)c1 [Example 321, N-(5-chloro-4-(2-fluoro-5-((4-hydroxy-4-methylpentyl)oxy)phenyl)pyridin-2-yl)-5-(cyclohexylmethyl)-4H-1,2,4-triazole-3-carboxamide]	100 to 1000 nM
Cc1ccc(OCCN2CCN(C)CC2)cc1-c1ccnc(NC(=O)c2nnc(Cc3ccccc3)[nH]2)c1 [Example 136, 5-benzyl-N-(4-(2-methyl-5-(2-(4-methylpiperazin-1-yl)ethoxy)phenyl)pyridin-2-yl)-4H-1,2,4-triazole-3-carboxamide]	≤ 100 nM
CC(C)(O)CCCOc1ccc(C(F)(F)F)c(-c2cc(NC(=O)c3nnc(Cc4ccccc4)[nH]3)ncn2)c1 [Example 450, 5-benzyl-N-(6-(5-((4-hydroxy-4-methylpentyl)oxy)-2-(trifluoromethyl)phenyl)pyrimidin-4-yl)-4H-1,2,4-triazole-3-carboxamide]	≤ 100 nM
CSCCCOc1ccc(C)c(-c2ccnc(NC(=O)c3nnc(Cc4ccccc4)[nH]3)c2)c1 [Example 72, 5-benzyl-N-(4-(2-methyl-5-(3-(methylthio)propoxy)phenyl)pyridin-2-yl)-4H-1,2,4-triazole-3-carboxamide]	≤ 100 nM
CC(C)(O)CCCOc1ccc(Cl)c(-c2cc(NC(=O)c3nnc(Cc4ccccc4)[nH]3)ncn2)c1 [Example 462, 5-benzyl-N-(6-(2-chloro-5-((4-hydroxy-4-methylpentyl)oxy)phenyl)pyrimidin-4-yl)-4H-1,2,4-triazole-3-carboxamide]	≤ 100 nM
CC(C)(O)CCCOc1ccc(Cl)c(-c2ccnc(NC(=O)c3nnc([C@H](O)c4ccccc4)[nH]3)c2)c1 [Example 477, (R)-N-(4-(2-chloro-5-((4-hydroxy-4-methylpentyl)oxy)phenyl)pyridin-2-yl)-5-(hydroxyl(phenyl)methyl)-4H-1,2,4-triazole-3-carboxamide]	1000 to 10000 nM
CCOc1ncc(C)cc1-c1ccnc(NC(=O)c2nnc(Cc3ccccc3)[nH]2)c1 [Example 51, 5-benzyl-N-(2-ethoxy-5-methyl-[3,4′-bipyridin]-2′-yl)-4H-1,2,4-triazole-3-carboxamide]	1000 to 10000 nM
O=C(Nc1cc(-c2cc(OCCCCCO)ccc2C(F)(F)F)ccn1)c1nnc(Cc2ccccc2F)[nH]1 [Example 276, 5-(2-fluorobenzyl)-N-(4-(5-((5-hydroxypentyl)oxy)-2-(trifluoromethyl)phenyl)pyridin-2-yl)-4H-1,2,4-triazole-3-carboxamide]	≤ 100 nM
Cc1ccc(OCCCC(C)(C)O)cc1-c1ccnc(NC(=O)c2nnc(Cc3ccc(F)c(C(F)(F)F)c3)[nH]2)c1 [Example 212, 5-(4-fluoro-3-trifluoromethylbenzyl)-N-(4-(5-((4-hydroxy-4-methylpentyl)oxy)-2-methylphenyl)pyridin-2-yl)-4H-1,2,4-triazole-3-carboxamide]	100 to 1000 nM
CC(C)(O)CCCOc1ccc(C(F)(F)F)c(-c2cc(NC(=O)c3nnc(CC4CCCCC4)[nH]3)ncn2)c1 [Example 453, 5-(cyclohexylmethyl)-N-(6-(5-((4-hydroxy-4-methylpentyl)oxy)-2-(trifluoromethyl)phenyl)pyrimidin-4-yl)-4H-1,2,4-triazole-3-carboxamide]	≤ 100 nM
Cc1ccc(OCCC(C)(C)C)cc1-c1ccnc(NC(=O)c2nnc(Cc3ccccc3)[nH]2)c1 [Example 115, 5-benzyl-N-(4-(5-(3,3-dimethylbutoxy)-2-methylphenyl)pyridin-2-yl)-4H-1,2,4-triazole-3-carboxamide]	100 to 1000 nM
Cc1ccc(OCC2CCOCC2)cc1-c1cc(NC(=O)c2nnc(Cc3ccccc3)[nH]2)ncn1 [Example 441, 5-benzyl-N-(6-(2-methyl-5-((tetrahydro-2H-pyran-4-yl)methoxy)phenyl)pyrimidin-4-yl)-4H-1,2,4-triazole-3-carboxamide]	≤ 100 nM
Cc1ccc(C(=O)CC2CCOCC2)cc1-c1ccnc(NC(=O)c2nnc(Cc3ccccc3)[nH]2)c1 [Example 485, 5-benzyl-N-(4-(2-methyl-5-(2-(tetrahydro-2H-pyran-4-yl)acetyl)phenyl)pyridin-2-yl)-4H-1,2,4-triazole-3-carboxamide]	100 to 1000 nM
COCCCN(C)c1ccc(C)c(-c2ccnc(NC(=O)c3nnc(Cc4ccccc4)[nH]3)c2)c1 [Example 58, 5-benzyl-N-(4-(5-((3-methoxypropyl)(methyl)amino)-2-methylphenyl)pyridin-2-yl)-4H-1,2,4-triazole-3-carboxamide]	100 to 1000 nM
CCOCCOc1ccc(C(F)(F)F)c(-c2ccnc(NC(=O)c3nnc(Cc4ccccc4F)[nH]3)c2)c1 [Example 284, 5-(2-fluorobenzyl)-N-(4-(5-(2-ethoxyethoxy)-2-(trifluoromethyl)phenyl)pyridin-2-yl)-4H-1,2,4-triazole-3-carboxamide]	≤ 100 nM

Structure (SMILES)	IC50
O=C(Nc1cc(-c2cc(OCC3CCOCC3)ccc2C(F)(F)F)ccn1)c1nnc(CC2CCCC2)[nH]1 [Example 303, 5-(cyclopentylmethyl)-N-(4-(5-((tetrahydro-2H-pyran-4-yl)methoxy)-2-(trifluoromethyl)phenyl)pyridin-2-yl)-4H-1,2,4-triazole-3-carboxamide]	≤ 100 nM
O=C(Nc1cc(-c2cc(OCC3CCOCC3)ccc2F)c(Cl)cn1)c1nnc(Cc2ccccc2F)[nH]1 [Example 329, N-(5-chloro-4-(2-fluoro-5-((tetrahydro-2H-pyran-4-yl)methoxy)phenyl)pyridin-2-yl)-5-(2-fluorobenzyl)-4H-1,2,4-triazole-3-carboxamide]	100 to 1000 nM
CC(C)OCCOc1ccc(C(F)(F)F)c(-c2ccnc(NC(=O)c3nnc(CC4CCCC4)[nH]3)c2)c1 [Example 289, 5-(cyclopentylmethyl)-N-(4-(5-(2-isopropoxyethoxy)-2-(trifluoromethyl)phenyl)pyridin-2-yl)-4H-1,2,4-triazole-3-carboxamide]	≤ 100 nM
CC(C)Oc1ccc(Cl)c(-c2cncc(NC(=O)c3nnc(Cc4ccccc4)[nH]3)c2)c1 [Example 110, 5-benzyl-N-(5-(2-chloro-5-isopropoxyphenyl)pyridin-3-yl)-4H-1,2,4-triazole-3-carboxamide]	> 10000 nM
CC(C)(O)CCCOc1ccc(C(F)(F)F)c(-c2ccnc(NC(=O)c3nnc(Cc4ccc(F)cc4)[nH]3)c2)c1 [Example 257, 5-(4-fluorobenzyl)-N-(4-(5-((4-hydroxy-4-methylpentyl)oxy)-2-(trifluoromethyl)phenyl)pyridin-2-yl)-4H-1,2,4-triazole-3-carboxamide]	≤ 100 nM
Cc1ccc(OCCC2CCOCC2)cc1-c1ccnc(NC(=O)c2nnc(Cc3ccccc3F)[nH]2)c1 [Example 226, 5-(2-fluorobenzyl)-N-(4-(2-methyl-5-(2-(tetrahydro-2H-pyran-4-yl)ethoxy)phenyl)pyridin-2-yl)-4H-1,2,4-triazole-3-carboxamide]	≤ 100 nM
Cc1ccc(C2CC2)cc1-c1ccnc(NC(=O)c2nnc(Cc3ccccc3)[nH]2)c1 [Example 45, 5-benzyl-N-(4-(5-cyclopropyl-2-methylphenyl)pyridin-2-yl)-4H-1,2,4-triazole-3-carboxamide]	100 to 1000 nM
Cc1cnc(OC(C)C)c(-c2ccnc(NC(=O)c3nnc(Cc4ccccc4)[nH]3)c2)c1 [Example 52, 5-benzyl-N-(2-isopropoxy-5-methyl-[3,4′-bipyridin]-2′-yl)-4H-1,2,4-triazole-3-carboxamide]	> 10000 nM
Cc1ccc(OCCCCC(C)(C)O)cc1-c1cc(NC(=O)c2nnc(Cc3ccccc3F)[nH]2)ncc1Cl [Example 247, N-(5-chloro-4-(5-((5-hydroxyl-5-methylhexyl)oxy)-2-methylphenyl)pyridin-2-yl)-5-(2-fluorobenzyl)-4H-1,2,4-triazole-3-carboxamide]	100 to 1000 nM
Cc1ccc(OCCN2CCCCC2)cc1-c1cc(NC(=O)c2nnc(Cc3ccccc3F)[nH]2)ncn1 [Example 449, 5-(2-fluorobenzyl)-N-(6-(2-methyl-5-(2-(piperidin-1-yl)ethoxy)phenyl)pyrimidin-4-yl)-4H-1,2,4-triazole-3-carboxamide]	100 to 1000 nM
CC(C)OCCOc1ccc(Cl)c(-c2ccnc(NC(=O)c3nnc(Cc4ccccc4F)[nH]3)c2)c1 [Example 388, 5-(2-fluorobenzyl)-N-(4-(2-chloro-5-(2-isopropoxyethoxy)phenyl)pyridin-2-yl)-4H-1,2,4-triazole-3-carboxamide]	≤ 100 nM
CC(C)(C)OCCOc1ccc(C(F)(F)F)c(-c2ccnc(NC(=O)c3nnc(Cc4ccccc4F)[nH]3)c2)c1 [Example 292, 5-(2-fluorobenzyl)-N-(4-(5-(2-(tert-butoxy)ethoxy)-2-(trifluoromethyl)phenyl)pyridin-2-yl)-4H-1,2,4-triazole-3-carboxamide]	≤ 100 nM
COc1ccccc1-c1ccnc(NC(=O)c2nnc(Cc3ccccc3)[nH]2)c1 [Example 3, 5-benzyl-N-(4-(2-methoxyphenyl)pyridin-2-yl)-4H-1,2,4-triazole-3-carboxamide]	1000 to 10000 nM
O=C(Nc1cc(-c2cc(OCC3CCOCC3)ccc2Cl)ncn1)c1nnc(Cc2ccccc2F)[nH]1 [Example 467, 5-(2-fluorobenzyl)-N-(6-(2-chloro-5-((tetrahydro-2H-pyran-4-yl)methoxy)phenyl)pyrimidin-4-yl)-4H-1,2,4-triazole-3-carboxamide]	≤ 100 nM
Cc1ccc(C(F)(F)F)cc1-c1ccnc(NC(=O)c2nnc(Cc3ccccc3)[nH]2)c1 [Example 36, 5-benzyl-N-(4-(2-methyl-5-(trifluoromethyl)phenyl)pyridin-2-yl)-4H-1,2,4-triazole-3-carboxamide]	100 to 1000 nM
